Assay results from patent US20080255121A1, “Combination Drug for Treating Autoimmune Disease” (DAINIPPON SUMITOMO PHARMA CO., LTD., priority 2004, published 2008).

How the values were obtained:
[1] = system: adjuvant-induced arthritis rats; test: Adjuvant-induced arthritis, therapeutic and prophylactic model; assay type: in vivo, rat
Protocol: The adjuvant-induced arthritis model is a representative chronic inflammation model caused in rats, and it is widely used for pharmacological evaluation of antiinflammatory drugs and antirheumatic drugs. Accordingly, effects of Compound (I) and Compound (II) were examined in both therapeutic and prophylactic model. In the therapeutic model, the difference of the volume of a hind leg before and after the dosed period was calculated to examine edema suppression effect by the drug administration and the change of edema volume was examined. In the prophylactic model, the volume of a hind paw was measured over time during the dosed period and the effect of the drug for a long term period was examined. Although the hind paw volume or the edema volume was used as the index of efficacy evaluation, the edema volume means the increment from the normal volume of the hind paw which was not sensitized with the adjuvant, and therefore, the both indices can be used as approximately the same meaning.
A liquid paraffin suspension (1 mg/200 μl) of Mycobacterium butyricum (adjuvant) was subcutaneously injected at the tarsal part of the right hind paw of SD or Lewis rats (both male, six-week old) to cause arthritis. In the therapeutic model, 0.5% methylcellulose suspension of Compound (I) or Compound (II) which was prepared so that the dose was 1 ml per 100 g body weight was orally administered once a day for consecutive five days from the 17th day after the injection of the adjuvant. An indomethacin suspension prepared in the similar way was administered as the positive control. The volume of the hind paws was measured respectively for the right and the left by water replacement method just before the administration and in five hours after the last administration and the difference in the values just before the administration and in five hours after the last administration was calculated and assumed as the change in the edema volume. In the prophylatic model, the compounds were administered once a day for consecutive 21 days after the day when the adjuvant was injected. The volume of the right and left hind paws was measured by water replacement method every other day. In the prophylactic model of Compound (II), a suspension of D-penicillamine, an antirheumatic drug, was administered in the same way as a control.

[2] = system: adjuvant-induced arthritis rats; test: Combination effect on adjuvant-induced arthritis (Example 18); assay type: in vivo, rat; conditions: only Compound (I) 10 mg/kg oral 12 days from day 10
Protocol: Combination effect with Compound (I) and DMARDs (methotrexate) was examined in the same way as in Example 17.
Administration of a DMARD (methotrexate (0.060 mg/kg or 0.045 mg/kg; 0.5% methylcellulose suspension)) to the rat in which adjuvant-induced arthritis was caused in the same way as in Example 17 was started on the day when the adjuvant was injected and continued once a day for consecutive 21 days. Compound (I) (10 mg/kg) was orally administered singly or in combination once a day for consecutive 12 days from the 10 days after the sensitization. The volume of the left hind paw was measured by water replacement method every other day.

C[C@@H](c1ccc(-c2ccccc2)c(F)c1)c1cc(/N=C(/N)N2CCOCC2)on1 [Compound (I), 3-[(1S)-1-(2-fluorobiphenyl-4-yl)ethyl]-5-{[amino(morpholin-4-yl)methylene]amino}isoxazole]
p, left hind paw volume (AUC value), Williams's multiple comparison ([1]; prophylactic model, 20 mg/kg): < 0.05
hind paw volume / edema volume ([1]; prophylactic model, oral once a day for 21 days, Compound (I) 2.5 to 80 mg/kg, Compound (II) 50 mg/kg, FIGS. 8 and 9): remarkable edema suppressing effect
change of edema volume of hind paw ([1]; therapeutic model, oral once a day for five days from 17th day, Compound (I) 2.5 to 80 mg/kg, Compound (II) 10 to 50 mg/kg, FIGS. 6 and 7): remarkable edema suppressing effect
onset ratio and volume of left hind paw [2]: very little effect
